Data published in US12440479B2, “Prevention or treatment of chronic organ injury” (GEORG-AUGUST-UNIVERSITAET GOETTINGEN, STIFTUNG …, priority 2018, dated 2025).

Assays:
[1] = test system: murine TECs; experiment: Murine TEC cultures (MCT): mRNA expression (qRT-PCR), pSmad1/5/8 immunostaining, proliferation; type: cell-based, mouse; conditions: cultured TECs, GPI-1046 10 μM
[2] = test system: murine TECs; experiment: as above; type: cell-based, mouse
Protocol: HK-2 (ATTC, Manassas, USA) are immortalized proximal tubule epithelial cells derived from normal adult human kidney. The murine proximal tubular epithelial cell line MCT was generated from the renal cortex of SJL mice (75). All cells were routinely tested negative for the presence of mycoplasma contamination. None of the cell lines used in this manuscript is listed in the ICLAC and NCBI Biosample database of misidentified cell lines. Cells were cultured in Dulbecco's modified Eagle's (DMEM, Gibco, Carlsbad, USA) medium supplemented with 100 µg/mL penicillin, 100 µg/mL streptomycin and 10% heat-inactivated fetal bovine serum (FBS, Sigma, St. Louis, USA) at 37° C. in 5% CO2. For RNA extractions, cells were seeded in 6 well culture plates at 10^5 cells per well in antibiotic free standard growth medium. […] Cells were harvested for further analysis 6 hours after incubation. To examine de novo protein syntheses, cells were again plated in 6 well culture plates as initially described and then pre-treated with the translation blocker Cycloheximide (CHX, 10 μg/mL, Sigma, St. Louis, USA). After one hour of incubation, 200 pM FK506 was applied for additional 6 hours. One night before transfection, MCT cells were seeded in 6 well culture plates at a concentration of 1.5-2×10^5 per well in antibiotic-free DMEM (Gibco, Carlsbad, USA) supplemented with 10% heat-inactivated fetal bovine serum (FBS, Sigma, St. Louis, USA). For knockdown experiments, 60 pmol siRNA (Santa Cruz Biotechnology, Dallas, USA) or scrambled siRNA (scrRNA, Santa Cruz Biotechnology, Santa Cruz, USA) was transfected, for over-expression experiments, 2 μg plasmid DNA was transfected using Lipofectamine 2000 reagent (Invitrogen, Carlsbad, USA). After 4 hours of incubation, transfection medium was replaced by antibiotic-free medium and cells recovered overnight. For stimulation experiments, cells were stimulated the day after with […] FK506 (Abcam Biochemicals, Cambridge, UK) dissolved in DMSO and harvested after 6 hours of incubation for RNA and protein analysis. For SYBR-based real-time PCR, cDNA synthesis was performed by using DNase I digestion (Invitrogen, Carlsbad, USA) and SuperScript II Reverse Transcriptase (Invitrogen, Carlsbad, USA) according to the manufacturer's protocol. 1 μL of reverse-transcribed cDNA was added to the reaction mixture containing the primer pair (200 nmol/L each) and diluted 2× Fast SYBR Green Master Mix (Applied Biosystems, Carlsbad, USA) in a final volume of 20 μL for each PCR reaction. The real-time PCR reactions were performed in a 96-well reaction plate using the StepOne Plus Real-Time System (Applied Biosystems, Carlsbad, USA) and were done in triplicates. An initiation step at 95° C. for 20 seconds was followed by 40 cycles at 95° C. for 3 to seconds and 60° C. for 30 seconds, with one cycle of dissociation at 95° C. for 15 seconds, 60° C. for 60 seconds, and 95° C. for 15 seconds. The intercalation of SYBR Green dye and its fluorescent signal is directly proportional to the amount of amplified DNA and was transformed into the cycle threshold (Ct). For normalization, the Ct values of the housekeeping genes Gapdh and Actb were subtracted from the Ct values of the gene of interest to generate the dCt values. The relative expression levels were calculated using the equation 2^−ddCt.

Row | SMILES | canonical BMP signaling responses [1] | transcriptional induction of ARNT and ALK3 mRNA expression levels [1] | induction of ALK3 transcription ([2]; TECs depleted for HIF1α (Hif1akd) or AHR (Ahrkd)) | mRNA expression levels of AR, ARNT, CEBPB, CREB1, GATA3, MAX (qRT-PCR) ([2]; TECs upon exposure to FK506) | ALK3 transcription or nuclear pSmad1/5/8 accumulation ([2]; TECs with ARNT depleted (Arntkd)) | ALK3 transcription and canonical BMP signaling responses (nuclear pSmad1/5/8) ([2]; TECs with Cycloheximide (CHX, 10 μg/mL)) | ARNT mRNA and protein levels ([2]; TECs with FKBP12 or YY1 depletion, FK506 supplemented) | ALK3 transcription and BMP signaling responses ([2]; TECs with YY1 depleted (Yy1kd), FK506 supplemented) | ARNT transcription ([2]; cultured TECs, FK506 added to culture media) | pSmad1/5/8 ([2]; murine TECs)
1 | CCC(C)(C)C(=O)C(=O)N1CCC[C@H]1C(=O)OCCCc1cccnc1 [GPI-1046, 3-(3-pyridyl)-1-propyl-(2S)-1-(3,3-dimethyl-1,2-dioxopentyl)-2-pyrrolidinedine carboxylate] | activation of canonical BMP signaling responses | equally effective |  |  |  |  |  |  |  | 
2 | C=CC[C@@H]1/C=C(\C)C[C@H](C)C[C@H](OC)[C@H]2O[C@@](O)(C(=O)C(=O)N3CCCC[C@H]3C(=O)O[C@H](/C(C)=C/[C@@H]3CC[C@@H](O)[C@H](OC)C3)[C@H](C)[C@@H](O)CC1=O)[C@H](C)C[C@@H]2OC [FK506, tacrolimus] |  |  | preserved effectiveness | increased | failed to induce | failed to induce | did not additionally induce | did not additionally induce | transcriptional ARNT induction | accumulation of pSmad1/5/8
